One compound from ChEMBL document CHEMBL4840379, “RIBOTACs: Small Molecules Selectively Destroy Cancer-Associated RNA” (ACS Med Chem Lett, 2021) can be followed below.

A short description of series [1]: Drug uptake in human MDA-MB-231 cells assessed as compound level at 500 nM incubated for 24 hrs. It is filed as ADME, cell-based. The settings on record: mda-mb-231, 24 h, 0.5 µM.
For a further series, the system named is microRNA 21. The experiment in a line: RIBOTAC activity at Pre-miR-21 RNA/RNase L in human MDA-MB-231 cells assessed as decrease in pre-miR-21 level by measuring cleaved pre-miR-21 level at 500 nM incubated for 24 hrs […]. Type of series: cell-based.
A further series deals with A-375. The experiment in a line: Antiinvasive activity in human A-375 cells assessed as decrease in pre-miR-21 overexpression induced invasion at 500 nM incubated for 24 hrs […]. It is filed as functional, cell-based.
The test system of the next series is A549. Kind of series: Antiinvasive activity in human A549 cells assessed as decrease in pre-miR-21 overexpression induced invasion at 500 nM incubated for 24 hrs […]. It is filed as functional, cell-based.
Series [2] is described as follows: Turnovers, ratio of RIBOTAC activity at Pre-miR-21 RNA/RNase L in human MDA-MB-231 cells assessed as decrease in pre-miR-21 level by measuring cleaved pre-miR-21 level at 500 nM incubated for 24 hrs […] to drug concentration in human MDA-MB-231 cells. Type of series: functional.

Activity calls are given as the source filed them. No cut-off for these calls is given here.

Regarding `CCCN(CC(=O)N(CCC)CC(=O)N(CCC)CC(=O)N(CC(=O)NCCOCCOCCOCCOc1ccc(/C=C2\SC(Nc3ccccc3)=C(C(=O)OCC)C2=O)cc1O)Cc1cn(CCCNC(=O)CCCOc2ccc(-c3nc4ccc(-c5ccc(N6CCN(C)CC6)cc5)cc4[nH]3)cc2)nn1)C(=O)CN(Cc1cn(CCCNC(=O)CCCOc2ccc(-c3nc4cc(-c5ccc(N6CCN(C)CC6)cc5)ccc4[nH]3)cc2)nn1)C(C)=O`, the Drug uptake in series [1] came to 2.6 pmol. Besides, in the series on microRNA 21, the Activity is 68 pmol. Further, the result in the series with A-375 and in the series on A549 was Active. The Ratio in series [2] is listed as 26.
